Measurements: patent publication US10420746B2, “Pharmaceutical composition containing Bay 11-7082, parthenolide or a combination thereof for the treatment of obesity or cardiovascular diseases” (priority 2015, dated 2019)

Legend:
[1] = biological target: T1, glutathione reductase (GR) (Homo sapiens, UniProt P00390); test: Glutathione reductase (GR) enzyme activity in lysates of treated human erythrocytes; settings: for inhibition of the enzyme GR: concentration not given
T1 sequence (P00390 1-479 isoform P00390-2): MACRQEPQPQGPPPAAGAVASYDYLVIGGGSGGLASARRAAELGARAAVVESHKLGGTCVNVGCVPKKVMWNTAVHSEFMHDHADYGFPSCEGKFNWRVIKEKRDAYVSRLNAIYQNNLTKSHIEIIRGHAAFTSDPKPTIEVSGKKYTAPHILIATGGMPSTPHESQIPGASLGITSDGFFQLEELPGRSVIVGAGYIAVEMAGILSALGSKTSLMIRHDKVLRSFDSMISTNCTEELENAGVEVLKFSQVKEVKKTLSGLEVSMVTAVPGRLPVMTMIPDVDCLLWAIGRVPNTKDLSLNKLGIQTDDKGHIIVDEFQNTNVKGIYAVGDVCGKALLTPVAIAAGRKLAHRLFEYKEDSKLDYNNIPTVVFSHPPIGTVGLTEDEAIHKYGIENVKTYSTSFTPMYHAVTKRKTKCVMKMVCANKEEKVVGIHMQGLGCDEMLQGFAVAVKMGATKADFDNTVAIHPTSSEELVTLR

human erythrocytes = test: GSH:GSSG ratio in treated human erythrocytes; settings: 24 hours, 0.6% hematocrit, DMSO control 125:1
[2] = biological target: glucose-6-phosphate dehydrogenase (G6PDH) (Homo sapiens, UniProt P11413); test: G6PDH enzyme activity in lysates of treated human erythrocytes; parameters: inhibition of the G6PDH activity: dose or concentration left out as unconfirmed
Chain of glucose-6-phosphate dehydrogenase (G6PDH) (P11413 whole entry): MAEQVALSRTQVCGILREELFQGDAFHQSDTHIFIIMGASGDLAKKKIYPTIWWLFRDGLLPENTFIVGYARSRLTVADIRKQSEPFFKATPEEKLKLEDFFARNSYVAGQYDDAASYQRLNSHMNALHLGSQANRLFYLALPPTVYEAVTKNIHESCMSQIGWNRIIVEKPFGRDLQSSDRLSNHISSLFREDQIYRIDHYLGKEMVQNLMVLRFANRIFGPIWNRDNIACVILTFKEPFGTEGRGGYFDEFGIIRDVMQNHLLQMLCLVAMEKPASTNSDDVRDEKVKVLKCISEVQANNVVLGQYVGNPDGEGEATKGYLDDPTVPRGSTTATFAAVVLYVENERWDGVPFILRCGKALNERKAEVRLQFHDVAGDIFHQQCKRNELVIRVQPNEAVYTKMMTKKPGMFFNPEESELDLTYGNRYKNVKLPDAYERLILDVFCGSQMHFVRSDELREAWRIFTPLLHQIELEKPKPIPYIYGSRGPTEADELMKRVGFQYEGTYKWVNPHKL

| GSR inhibition ([1]; 20 μM, erythrocytes 0.6% Hct treated 24 hours) | inhibition of the enzyme GR [1] | inhibition of the G6PDH activity ([2]; (clinically relevant concentration), erythrocytes treated 24 hours) | inhibition of G6PDH ([2]; already in low concentrations) | inhibition at 20 µM ([2]; read-out: G6PDH-inhibition) [%] | inhibition at 140 µM ([1]; read-out: GR inhibition) [%] | inhibition at 140 µM ([2]; read-out: inhibition of G6PDH) [%] | SMILES | GSH:GSSG ratio (human erythrocytes; 20 μM) | GSH:GSSG ratio (human erythrocytes; 140 μM) |
| --- | --- | --- | --- | --- | --- | --- | --- | --- | --- |
| complete GSR inhibition | completely | complete inhibition | complete | 100 |  |  | Cc1ccc(S(=O)(=O)/C=C/C#N)cc1 [Bay 11-7082, 3-[(4-methylphenyl)sulfonyl]-(2E)-propenenitrile] | equal to 0 or approaching 0 |  |
|  | 50% |  |  |  | ≥ 50 | ≥ 50 | COC(=O)/C=C/C(=O)OC [dimethylfumarate, (E)-2-butenedioic acid dimethyl ester] |  | equal to 0 or approaching 0 |
